According to ChEMBL document CHEMBL1201862, “PubChem BioAssay data set” (2004):
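Compound exposure: 48 hours, 5 concentrations, 96-well plates. GI50: concentration for 50% inhibition of growth.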 Activity calls are given as the source filed them. Cut-off read from the data, not from the text of the source: active = GI50 up to about 1.1 µM and inactive = higher.

Legend:
Assay in all cases: NCI tumour cell line growth inhibition, 48 h
786-0 = tested on: 786-0
SK-OV-3 = tested on: SK-OV-3
MDA-MB-231 = tested on: MDA-MB-231
HOP-62 = tested on: HOP-62
CAKI-1 = tested on: CAKI-1
COLO 205 = tested on: COLO 205
TK-10 = tested on: TK-10
MDA-N = tested on: MDA-N
BT-549 = tested on: BT-549
OVCAR-5 = tested on: OVCAR-5
HCC 2998 = tested on: HCC 2998
M14 = tested on: M14
RPMI-8226 = tested on: RPMI-8226
SF-268 = tested on: SF-268
IGROV-1 = tested on: IGROV-1
PC-3 = tested on: PC-3
MDA-MB-435 = tested on: MDA-MB-435
HT-29 = tested on: HT-29
HCT-15 = tested on: HCT-15
U-251 = tested on: U-251
KM12 = tested on: KM12
NCI-H23 = tested on: NCI-H23
OVCAR-4 = tested on: OVCAR-4
SF-295 = tested on: SF-295
HCT-116 = tested on: HCT-116
OVCAR-3 = tested on: OVCAR-3
SNB-75 = tested on: SNB-75
A549 = tested on: A549
NCI-H460 = tested on: NCI-H460
SNB-19 = tested on: SNB-19
Hs-578T = tested on: Hs-578T
UACC-62 = tested on: UACC-62
A498 = tested on: A498
NCI-H522 = tested on: NCI-H522
RXF 393 = tested on: RXF 393
MCF7 = tested on: MCF7
MOLT-4 = tested on: MOLT-4
UACC-257 = tested on: UACC-257
DU-145 = tested on: DU-145
SK-MEL-28 = tested on: SK-MEL-28
SK-MEL-5 = tested on: SK-MEL-5
SK-MEL-2 = tested on: SK-MEL-2
OVCAR-8 = tested on: OVCAR-8
UO-31 = tested on: UO-31
EKVX = tested on: EKVX
HOP-92 = tested on: HOP-92
K562 = tested on: K562
ACHN = tested on: ACHN
Malme-3M = tested on: Malme-3M
NCI/ADR-RES = tested on: NCI/ADR-RES

COc1ccc(/N=[N+](\[O-])c2ccc(OC)cc2)cc1
GI50 (786-0): > 100 µM (inactive) | GI50 (SK-OV-3): > 100 µM (inactive) | GI50 (MDA-MB-231): > 100 µM (inactive) | GI50 (HOP-62): > 100 µM (inactive) | GI50 (CAKI-1): > 100 µM (inactive) | GI50 (COLO 205): > 100 µM (inactive) | GI50 (TK-10): > 100 µM (inactive) | GI50 (MDA-N): > 100 µM (inactive) | GI50 (BT-549): > 100 µM (inactive) | GI50 (OVCAR-5): > 100 µM (inactive) | GI50 (HCC 2998): > 100 µM (inactive) | GI50 (M14): > 100 µM (inactive) | GI50 (RPMI-8226): > 100 µM (inactive) | GI50 (SF-268): > 100 µM (inactive) | GI50 (IGROV-1): > 100 µM (inactive) | GI50 (PC-3): > 100 µM (inactive) | GI50 (MDA-MB-435): > 100 µM (inactive) | GI50 (HT-29): > 100 µM (inactive) | GI50 (HCT-15): > 100 µM | GI50 (U-251): > 100 µM (inactive) | GI50 (KM12): > 100 µM (inactive) | GI50 (NCI-H23): > 100 µM (inactive) | GI50 (OVCAR-4): > 100 µM (inactive) | GI50 (SF-295): > 100 µM (inactive) | GI50 (HCT-116): > 100 µM (inactive) | GI50 (OVCAR-3): > 100 µM (inactive) | GI50 (SNB-75): > 100 µM (inactive) | GI50 (A549): > 100 µM (inactive) | GI50 (NCI-H460): > 100 µM (inactive) | GI50 (SNB-19): > 100 µM (inactive) | GI50 (Hs-578T): > 100 µM (inactive) | GI50 (UACC-62): > 100 µM (inactive) | GI50 (A498): > 100 µM (inactive) | GI50 (NCI-H522): 79.8 µM (inactive) | GI50 (RXF 393): > 100 µM (inactive) | GI50 (MCF7): > 100 µM (inactive) | GI50 (MOLT-4): > 100 µM (inactive) | GI50 (UACC-257): > 100 µM (inactive) | GI50 (DU-145): > 100 µM (inactive) | GI50 (SK-MEL-28): > 100 µM (inactive) | GI50 (SK-MEL-5): > 100 µM (inactive) | GI50 (SK-MEL-2): > 100 µM (inactive) | GI50 (OVCAR-8): > 100 µM (inactive) | GI50 (UO-31): > 100 µM (inactive) | GI50 (EKVX): > 100 µM (inactive) | GI50 (HOP-92): > 100 µM (inactive) | GI50 (K562): > 100 µM (inactive) | GI50 (ACHN): > 100 µM (inactive) | GI50 (Malme-3M): > 100 µM (inactive) | GI50 (NCI/ADR-RES): > 100 µM (inactive)
